Data: US5082964A, “Selective acetylcholinesterase inhibitors and methods of making and using same” (priority 1986, dated 1992)
Where a name gives a salt, the structure may show the parent alone. Read-outs that look alike come from different tables or passages of the source.

Assays:
acetylcholinesterase [1] = target: acetylcholinesterase (Electrophorus electricus, UniProt O42275); assay: Ellman assay for acetylcholinesterase inhibition, IC50 (eel-derived enzyme); assay type: biochemical, electric eel
acetylcholinesterase (Electrophorus electricus, UniProt O42275), sequence (O42275 24-633): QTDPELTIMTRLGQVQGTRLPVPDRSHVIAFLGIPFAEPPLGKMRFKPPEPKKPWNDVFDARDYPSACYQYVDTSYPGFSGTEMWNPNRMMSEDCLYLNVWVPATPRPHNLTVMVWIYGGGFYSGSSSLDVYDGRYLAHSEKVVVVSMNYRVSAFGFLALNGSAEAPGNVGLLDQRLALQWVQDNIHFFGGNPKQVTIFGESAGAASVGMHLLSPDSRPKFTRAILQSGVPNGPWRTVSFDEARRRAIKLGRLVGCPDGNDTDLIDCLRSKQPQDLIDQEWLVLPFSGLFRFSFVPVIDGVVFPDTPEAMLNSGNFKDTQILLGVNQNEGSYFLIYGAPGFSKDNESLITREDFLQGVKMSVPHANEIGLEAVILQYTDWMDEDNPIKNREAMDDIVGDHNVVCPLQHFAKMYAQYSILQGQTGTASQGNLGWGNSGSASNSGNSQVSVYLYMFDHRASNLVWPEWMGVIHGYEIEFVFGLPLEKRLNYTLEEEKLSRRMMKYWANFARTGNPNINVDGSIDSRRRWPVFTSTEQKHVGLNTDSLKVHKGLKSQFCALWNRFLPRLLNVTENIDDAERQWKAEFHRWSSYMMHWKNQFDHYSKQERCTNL
Text: (§1) Ortho-, meta-, and p-chloromethylphenyl choline carbonates are all examples of inhibitors of acetylcholinesterase in accordance with the present invention. Employing the Ellman assay for acetylcholinesterase inhibition [G. L. Ellman, K. D. Courtney, V. Andrews, Jr., and R. M. Featherstone, Biochem. Pharmacol., vol.
From such competitive inhibitor measurements it was possible to determine an IC50 (proportionate amount necessary to reduce acetylcholinesterase activity by 50%) for various inhibitors [meaning those containing the CH2 X group] in this patent. All IC50 values fell between 8 and 200 uM. The exact value varied with the source of the acetylcholinesterase and quantitative measurements were performed on electric eel and human erythrocyte enzyme. Values reported below are with eel-derived enzyme. [drawing 5] where

[2] = Solubility, hygroscopicity and stability; assay type: physicochemical
acetylcholinesterase [3] = assay: Time course inactivation of acetylcholinesterase; assay type: biochemical
Text: The synthetic preparation of the hydrochloride salt of the tertiary amine inhibitors involves only slight modifications of the general method.

acetylcholinesterase [4] = assay: Inhibition and inactivation kinetics of acetylcholinesterase, substrate protection; assay type: biochemical; conditions: for Protection against inactivation by substrate acetylcholine: equimolar concentrations of acetylcholine and inhibitor (10 μM each), pre-incubation state
Text: as §1
p-Chloromethylphenyl choline carbonate iodide salt is an example of an inhibitor of acetylcholinesterase in accordance with the present invention.

[5] = cited from earlier work
acetylcholinesterase [6] = assay: Ellman assay for acetylcholinesterase inhibition (enzyme source not given); assay type: biochemical; conditions: enzyme source not stated
Text: as §1

## C[N+](C)(C)CCOC(=O)Oc1ccccc1CCl [ortho-CH2 Cl]
Acetylcholinesterase [1]
  IC50: 100 µM

## CN(C)CCOC(=O)Oc1ccc(CCl)cc1
[2]
  Water solubility: water- soluble
Acetylcholinesterase [3]; compared with p-chloromethylphenyl choline carbonate
  Time course inactivation relative to p-chloromethylphenyl choline carbonate: time course inactivation similar to that for the p-chloromethylphenyl choline carbonate
Acetylcholinesterase [3]; deduced from time course data
  Potency relative to the quaternary compound: as potent as the quaternary compound
Acetylcholinesterase [3]; first 15 minutes at 40 uM concentration
  Inactivation of acetylcholinesterase: 88%

## C[N+](C)(C)CCOC(=O)Oc1cccc(CCl)c1 [meta-CH2 Cl]
Acetylcholinesterase [1]
  IC50: 150 µM

## C[N+](C)(C)CCOC(=O)Oc1ccc(CCl)cc1 [p-chloromethyl phenyl choline carbonate iodide salt]
Acetylcholinesterase [1]; eel-derived enzyme, Ellman assay, read-out: IC50 (proportionate amount necessary to reduce acetylcholinesterase activity by 50%)
  IC50: 40 µM
Acetylcholinesterase [4]; 25° C., pH=8 phosphate buffer
  Ki: 32 µM
  Km: 144 µM
Acetylcholinesterase [4]; below inhibitor concentrations of 40 μM
  Inactivation mode / kinetics: time-dependent manner with pseudo first order kinetics
Acetylcholinesterase [4]
  Protection against inactivation by substrate acetylcholine: offers partial protection against inactivation
Acetylcholinesterase [4]; listed as p-chloromethyl derivative
  Protection against inactivation by substrate acetylcholine: offers protection against inactivation
[2]; solid iodide salt
  Hygroscopicity: very hygroscopic

## CCOP(=O)(OCC)OP(=O)(OCC)OP(=O)(OCC)OP(=O)(OCC)OCC (stereo not shown) [hexaethyltetraphosphate]
[5]
  Solubility in petroleum ethers and kerosene: general insolubility
  Solubility in water (known inhibitors): somewhat soluble in water

## CC(C)(C)CCOC(=O)Oc1ccc(CCl)cc1 [3,3-dimethylbutyl p-chloromethylphenyl carbonate]
Acetylcholinesterase [6]
  IC50: 8 µM
